Reference: US9403823B2, “Protein kinase inhibitors” (ORIBASE PHARMA, priority 2012, dated 2016)
Read-outs that look alike come from different tables or passages of the source.

Legend:
EGFR (ErbB1) = target: T1, EGFR (ErbB1) (Homo sapiens, UniProt P00533); assay: In vitro kinase assay (Z'-LYTE), EGFR (ErbB1); assay type: biochemical; conditions: read-out: % of inhibition of the kinase compared to the control
T1 construct: purchased Invitrogen
Procedure: (§1) 1) In Vitro Kinase Assays (Table 10 to Table 21)
(§2) The inhibitory activity of the compounds on several kinases including BRAF, EGFR (ErbB1), EGFR (ErbB1) T790M L858R, FGFR2, KDR (VEGFR2), PDGFRA (PDGFR alpha), SRC and other was evaluated by Invitrogen using the Z′-LYTE® technology. Briefly, the Z′-LYTE® biochemical assay employs a fluorescence-based, coupled-enzyme format and is based on the differential sensitivity of phosphorylated and non-phosphorylated peptides to proteolytic cleavage. The peptide substrate is labeled with two fluorophores—one at each end—that make up a FRET pair. A ratiometric method, which calculates the ratio (the Emission Ratio) of donor emission to acceptor emission after excitation of the donor fluorophore at 400 nm, is used to quantitate reaction progress.
(§3) The compounds are screened in 1% DMSO (final) in the well. For 10 point titrations, 3-fold serial dilutions are conducted from the starting concentration. All Peptide/Kinase Mixtures are diluted to a 2× working concentration in the appropriate Kinase Buffer. All ATP Solutions are diluted to a 4× working concentration in Kinase Buffer (50 mM HEPES pH 7.5, 0.01% BRIJ-35, 10 mM MgCl2, 1 mM EGTA). ATP Km apparent is previously determined using a Z′-LYTE® assay.
(§4) Each compound was incubated at a concentration of 100 nM (excepted to test the activity against ABL and ABL T315I for which the compounds were incubated at a concentration of 10 μM) and the tables 10 to 21 summarize the results obtained showing the inhibitory power of a compound.

KDR (VEGFR2) = target: T2, KDR (VEGFR2) (Homo sapiens, UniProt P35968); assay: In vitro kinase assay (Z'-LYTE), KDR (VEGFR2); assay type: biochemical; conditions: read-out: % of inhibition of the kinase compared to the control
T2 construct: purchased Invitrogen
T2 sequence (P35968 20-1356): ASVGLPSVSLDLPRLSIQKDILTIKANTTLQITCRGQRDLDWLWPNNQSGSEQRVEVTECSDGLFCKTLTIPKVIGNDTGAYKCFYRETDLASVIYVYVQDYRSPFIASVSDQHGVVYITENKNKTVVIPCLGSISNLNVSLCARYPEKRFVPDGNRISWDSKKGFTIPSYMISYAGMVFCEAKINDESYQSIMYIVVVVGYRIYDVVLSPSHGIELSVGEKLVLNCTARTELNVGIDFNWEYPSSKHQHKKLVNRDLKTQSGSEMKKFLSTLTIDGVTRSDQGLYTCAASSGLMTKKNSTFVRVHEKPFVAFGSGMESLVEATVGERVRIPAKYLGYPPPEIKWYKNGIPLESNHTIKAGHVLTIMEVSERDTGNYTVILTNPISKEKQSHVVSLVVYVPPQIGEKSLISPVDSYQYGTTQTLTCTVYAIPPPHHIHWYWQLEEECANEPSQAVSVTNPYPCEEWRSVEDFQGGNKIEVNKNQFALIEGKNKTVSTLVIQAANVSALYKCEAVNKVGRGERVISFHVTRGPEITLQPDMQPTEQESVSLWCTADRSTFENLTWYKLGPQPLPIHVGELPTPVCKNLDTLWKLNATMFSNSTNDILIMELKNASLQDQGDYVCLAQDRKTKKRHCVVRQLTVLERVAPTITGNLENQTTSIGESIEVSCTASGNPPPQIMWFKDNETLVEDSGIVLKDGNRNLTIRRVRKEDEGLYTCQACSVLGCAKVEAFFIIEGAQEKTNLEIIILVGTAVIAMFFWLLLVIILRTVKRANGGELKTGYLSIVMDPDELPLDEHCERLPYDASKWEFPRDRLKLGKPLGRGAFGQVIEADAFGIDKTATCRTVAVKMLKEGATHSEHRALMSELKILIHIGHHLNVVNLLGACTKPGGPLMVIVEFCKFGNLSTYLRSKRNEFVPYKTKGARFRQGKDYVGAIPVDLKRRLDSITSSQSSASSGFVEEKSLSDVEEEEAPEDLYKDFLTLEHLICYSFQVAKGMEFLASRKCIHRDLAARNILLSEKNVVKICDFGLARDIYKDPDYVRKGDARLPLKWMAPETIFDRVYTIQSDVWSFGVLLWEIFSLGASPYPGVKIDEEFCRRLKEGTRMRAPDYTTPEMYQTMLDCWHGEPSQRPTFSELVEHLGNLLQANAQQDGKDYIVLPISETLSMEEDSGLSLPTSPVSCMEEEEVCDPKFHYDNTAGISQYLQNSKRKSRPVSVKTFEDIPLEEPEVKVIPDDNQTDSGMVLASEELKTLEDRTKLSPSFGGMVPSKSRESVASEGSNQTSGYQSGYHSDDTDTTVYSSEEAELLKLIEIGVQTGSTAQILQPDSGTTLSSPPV
Procedure: as §1, §2, §3, §4

FGFR2 = target: T3, FGFR2 (Homo sapiens, UniProt P21802); assay: In vitro kinase assay (Z'-LYTE), FGFR2; assay type: biochemical; conditions: read-out: % of inhibition of the kinase compared to the control
T3 construct: purchased Invitrogen
T3 sequence (P21802 22-821): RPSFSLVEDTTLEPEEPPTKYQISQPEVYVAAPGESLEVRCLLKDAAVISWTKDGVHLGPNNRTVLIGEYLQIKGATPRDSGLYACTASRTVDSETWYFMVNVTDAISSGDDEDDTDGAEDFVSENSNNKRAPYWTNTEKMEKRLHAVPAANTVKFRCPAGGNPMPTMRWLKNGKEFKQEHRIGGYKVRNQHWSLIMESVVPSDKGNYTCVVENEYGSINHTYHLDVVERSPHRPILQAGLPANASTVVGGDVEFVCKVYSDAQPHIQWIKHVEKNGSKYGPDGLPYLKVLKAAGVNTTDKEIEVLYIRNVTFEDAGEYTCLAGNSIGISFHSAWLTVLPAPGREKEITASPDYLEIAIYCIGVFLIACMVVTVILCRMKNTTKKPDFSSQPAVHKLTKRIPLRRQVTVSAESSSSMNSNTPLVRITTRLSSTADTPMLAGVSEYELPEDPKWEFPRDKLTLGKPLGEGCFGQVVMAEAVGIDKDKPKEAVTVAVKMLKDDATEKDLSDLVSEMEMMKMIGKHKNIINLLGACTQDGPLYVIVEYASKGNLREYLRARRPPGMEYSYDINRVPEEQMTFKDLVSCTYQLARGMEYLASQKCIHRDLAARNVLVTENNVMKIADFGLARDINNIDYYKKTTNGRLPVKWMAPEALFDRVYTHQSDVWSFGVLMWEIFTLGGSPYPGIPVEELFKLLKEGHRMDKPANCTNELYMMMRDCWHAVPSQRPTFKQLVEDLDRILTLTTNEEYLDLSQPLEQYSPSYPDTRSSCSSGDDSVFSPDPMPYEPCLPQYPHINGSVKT
Procedure: as §1, §2, §3, §4

BRAF = target: T4, BRAF (Homo sapiens, UniProt P15056); assay: In vitro kinase assay (Z'-LYTE), BRAF; assay type: biochemical; conditions: read-out: % of inhibition of the kinase compared to the control
T4 construct: purchased Invitrogen
T4 sequence (P15056 whole entry): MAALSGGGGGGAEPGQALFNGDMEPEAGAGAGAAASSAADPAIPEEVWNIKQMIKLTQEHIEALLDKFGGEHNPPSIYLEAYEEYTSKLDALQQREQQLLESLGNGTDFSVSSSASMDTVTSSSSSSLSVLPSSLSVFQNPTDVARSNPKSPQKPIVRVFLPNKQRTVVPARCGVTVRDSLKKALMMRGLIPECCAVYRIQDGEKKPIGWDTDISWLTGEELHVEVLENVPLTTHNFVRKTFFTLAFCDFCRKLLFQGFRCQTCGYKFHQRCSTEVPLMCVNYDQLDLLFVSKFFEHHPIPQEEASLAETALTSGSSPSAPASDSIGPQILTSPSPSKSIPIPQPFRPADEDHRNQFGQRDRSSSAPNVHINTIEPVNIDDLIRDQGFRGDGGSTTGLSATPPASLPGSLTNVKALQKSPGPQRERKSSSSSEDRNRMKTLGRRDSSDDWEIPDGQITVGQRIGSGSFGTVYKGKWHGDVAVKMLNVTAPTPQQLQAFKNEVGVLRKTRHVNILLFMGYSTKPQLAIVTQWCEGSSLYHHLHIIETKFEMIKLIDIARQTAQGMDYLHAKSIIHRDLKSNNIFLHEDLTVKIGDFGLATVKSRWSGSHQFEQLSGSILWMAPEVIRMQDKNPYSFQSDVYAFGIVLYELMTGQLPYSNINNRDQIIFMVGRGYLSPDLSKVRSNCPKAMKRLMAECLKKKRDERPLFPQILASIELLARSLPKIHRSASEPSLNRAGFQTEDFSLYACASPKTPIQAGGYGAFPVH
Procedure: as §1, §2, §3, §4

HUVEC = assay: In vitro cell proliferation assay (MTT), HUVEC; assay type: cell-based; conditions: Homo sapiens, read-out: EC50, anti-proliferative activity
Procedure: (§5) 2) In Vitro Cell Proliferation Assays (Table 22 to Table 35)
(§6) Cancer cell lines (5×10^3 cells per well) or HUVEC (1×10^4 cells per well) or HRMEC (1×10^4 cells per well) were distributed in 96-well plates and incubating in duplicate with escalating concentrations (10 nM to 3 μM) of compounds for 72 hr. Cell proliferation was measured using MTT (3[4,5-dimethylthiazol-2-yl]-2,5-diphenyltetrazolium bromide).

HepG2 cell line = assay: In vitro cell proliferation assay (MTT), HepG2; assay type: cell-based; conditions: Homo sapiens, HepG2, 72 h; read-out: EC50, anti-proliferative activity
Procedure: as §5, §6

T1 sequence (P00533 25-1210): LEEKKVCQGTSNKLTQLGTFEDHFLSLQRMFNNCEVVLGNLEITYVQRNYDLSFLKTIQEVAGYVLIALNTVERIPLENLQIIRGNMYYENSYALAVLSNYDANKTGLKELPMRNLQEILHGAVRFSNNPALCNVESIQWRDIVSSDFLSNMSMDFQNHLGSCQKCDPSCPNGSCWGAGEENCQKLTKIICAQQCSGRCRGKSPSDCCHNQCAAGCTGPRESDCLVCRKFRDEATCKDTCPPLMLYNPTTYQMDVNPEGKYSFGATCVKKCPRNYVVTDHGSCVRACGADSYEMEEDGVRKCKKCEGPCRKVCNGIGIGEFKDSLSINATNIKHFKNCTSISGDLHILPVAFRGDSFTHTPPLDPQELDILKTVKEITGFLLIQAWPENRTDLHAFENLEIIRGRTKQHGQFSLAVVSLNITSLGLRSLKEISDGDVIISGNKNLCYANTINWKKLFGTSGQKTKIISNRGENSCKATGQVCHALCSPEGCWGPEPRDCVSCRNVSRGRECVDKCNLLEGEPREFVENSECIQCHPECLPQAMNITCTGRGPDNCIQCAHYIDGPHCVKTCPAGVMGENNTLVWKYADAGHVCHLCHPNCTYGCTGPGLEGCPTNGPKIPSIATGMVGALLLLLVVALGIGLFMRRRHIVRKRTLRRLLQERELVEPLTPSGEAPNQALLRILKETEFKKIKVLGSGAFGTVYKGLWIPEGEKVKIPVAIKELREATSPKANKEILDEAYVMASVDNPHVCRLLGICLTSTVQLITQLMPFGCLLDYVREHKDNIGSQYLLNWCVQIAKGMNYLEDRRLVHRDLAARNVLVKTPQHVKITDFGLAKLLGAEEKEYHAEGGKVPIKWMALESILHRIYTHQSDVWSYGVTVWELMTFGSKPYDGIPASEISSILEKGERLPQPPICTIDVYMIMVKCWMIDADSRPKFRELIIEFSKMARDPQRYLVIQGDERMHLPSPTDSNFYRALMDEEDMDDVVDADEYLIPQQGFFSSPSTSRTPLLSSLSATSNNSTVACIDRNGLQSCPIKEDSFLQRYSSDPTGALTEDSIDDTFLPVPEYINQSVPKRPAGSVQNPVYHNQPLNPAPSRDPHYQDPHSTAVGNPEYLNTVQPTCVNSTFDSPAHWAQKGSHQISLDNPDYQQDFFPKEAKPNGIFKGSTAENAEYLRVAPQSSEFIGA

Structure (SMILES)	inhibition at 0.1 µM (EGFR (ErbB1)) [%]	inhibition at 0.1 µM (KDR (VEGFR2)) [%]	inhibition at 0.1 µM (FGFR2) [%]	inhibition at 0.1 µM (BRAF) [%]	EC50 (HepG2 cell line) [nM]	EC50 (HUVEC; 72 h) [nM]	EC50 (HUVEC; 72 hr, MTT) [nM]
Cc1ccc(NC(=O)c2ccc(CN3CC[C@H](N(C)C)C3)c(C(F)(F)F)c2)cc1CNc1cnc2[nH]c(C(=O)O)cc2c1 [OR0814, 5-{5-[4-((S)-3-Dimethylamino-pyrrolidin-1-ylmethyl)-3-trifluoromethyl-benzoylamino]-2-methyl-benzylamino}-1H-pyrrolo[2,3-b]pyridine-2-carboxylic acid]	≥ 50	≥ 50	≥ 50	< 50			
CC(=O)c1cc2cc(NCc3cc(NC(=O)c4cccc(C(F)(F)F)c4)ccc3C)cnc2[nH]1 [OR0893, N-{3-[(2-Acetyl-1H-pyrrolo[2,3-b]pyridin-5-ylamino)-methyl]-4-methyl-phenyl}-3-trifluoromethyl-benzamide]	≥ 50	≥ 50	< 50	≥ 50	≤ 100	100 to 1000	
CC(=O)c1cc2cc(NCc3cc(NC(=O)c4ccnc(C(F)(F)F)c4)ccc3C)cnc2[nH]1 [OR0887, N-{3-[(2-Acetyl-1H-pyrrolo[2,3-b]pyridin-5-ylamino)-methyl]-4-methyl-phenyl}-2-trifluoromethyl-isonicotinamide]	< 50	≥ 50	< 50	≥ 50		100 to 1000	
Cc1ccc(NC(=O)c2ccc(CN3CCN(C)CC3)c(C(F)(F)F)c2)cc1C(=O)Nc1cnc2[nH]c(C(=O)O)cc2c1 [OR0810, 5-{2-Methyl-5-[4-(4-methyl-piperazin-1-ylmethyl)-3-trifluoromethyl-benzoylamino]-benzoylamino}-1H-pyrrolo[2,3-b]pyridine-2-carboxylic acid]	≥ 50	≥ 50	≥ 50	< 50			

More lines, main results first:

inhibition at 0.1 µM (EGFR (ErbB1)) [%]	inhibition at 0.1 µM (KDR (VEGFR2)) [%]	inhibition at 0.1 µM (FGFR2) [%]	inhibition at 0.1 µM (BRAF) [%]	EC50 (HepG2 cell line) [nM]	Structure (SMILES)	EC50 (HUVEC; 72 h) [nM]	EC50 (HUVEC; 72 hr, MTT) [nM]
≥ 50	≥ 50	≥ 50	< 50	100 to 1000	CC(=O)c1cc2cc(NCc3cc(NC(=O)c4ccc(CN5CC[C@H](N(C)C)C5)c(C(F)(F)F)c4)ccc3F)cnc2[nH]1 [OR0971, N-{3-[(2-Acetyl-1H-pyrrolo[2,3-b]pyridin-5-ylamino)-methyl]-4-fluoro-phenyl}-4-((S)-3-dimethylamino-pyrrolidin-1-ylmethyl)-3-trifluoromethyl-benzamide]		≥ 1000
≥ 50	≥ 50	≥ 50	< 50	100 to 1000	CC(=O)c1cc2cc(NCc3cccc(NC(=O)c4ccc(CN5CC[C@H](N(C)C)C5)c(C(F)(F)F)c4)c3)cnc2[nH]1 [OR0927, N-{3-[(2-Acetyl-1H-pyrrolo[2,3-b]pyridin-5-ylamino)-methyl]-phenyl}-4-((S)-3-dimethylamino-pyrrolidin-1-ylmethyl)-3-trifluoromethyl-benzamide]	100 to 1000	
≥ 50	≥ 50	< 50	≥ 50	100 to 1000	CC(=O)c1cc2cc(NCc3cc(NC(=O)c4ccc(CN5CCC(N(C)C)C5)c(F)c4)ccc3C)cnc2[nH]1 (stereo not drawn) [OR0973, N-{3-[(2-Acetyl-1H-pyrrolo[2,3-b]pyridin-5-ylamino)-methyl]-4-methyl-phenyl}-4-(3-dimethylamino-pyrrolidin-1-ylmethyl)-3-fluoro-benzamide]		≥ 1000
< 50	≥ 50	≥ 50	≥ 50		CC(=O)c1cc2cc(NCc3ccc(F)c(NC(=O)c4cncc(C(F)(F)F)c4)c3)cnc2[nH]1 [OR0894, N-{5-[(2-Acetyl-1H-pyrrolo[2,3-b]pyridin-5-ylamino)-methyl]-2-fluoro-phenyl}-5-trifluoromethyl-nicotinamide]		≥ 1000
